Laboratory results published in patent publication US11021481B2, “Substituted isoindolin-1-ones and 2,3-dihydro-1h-pyrrolo[3,4-c]pyridin-1-ones as HPK1 antagonists” (Nimbus Saturn, Inc., priority 2019, dated 2021).
pIC50: −log10 of the molar value. Where a name gives a salt, the structure may show the parent alone.

Target: HPK1 (Homo sapiens (Human), UniProt Q92918)
Assay: HPK1 biochemical enzyme assay (microfluidic mobility shift assay)
Conditions: 1.5 nM HPK1, ATP 1 mM final, 30 min preincubation, 60 min at RT, Caliper EZ Reader; read-out: HPK1 1000UMATP caliper IC50
Outline: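 Mobility shift readout of HPK1 activity after a 60 min RT reaction with 1 mM ATP, 1 μM substrate and 5 mM MgCl2. Enzyme/substrate mix was first exposed to compounds for 30 min, using ten-point curves topping at 3 μM final.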

HPK1, sequence (Q92918 whole entry): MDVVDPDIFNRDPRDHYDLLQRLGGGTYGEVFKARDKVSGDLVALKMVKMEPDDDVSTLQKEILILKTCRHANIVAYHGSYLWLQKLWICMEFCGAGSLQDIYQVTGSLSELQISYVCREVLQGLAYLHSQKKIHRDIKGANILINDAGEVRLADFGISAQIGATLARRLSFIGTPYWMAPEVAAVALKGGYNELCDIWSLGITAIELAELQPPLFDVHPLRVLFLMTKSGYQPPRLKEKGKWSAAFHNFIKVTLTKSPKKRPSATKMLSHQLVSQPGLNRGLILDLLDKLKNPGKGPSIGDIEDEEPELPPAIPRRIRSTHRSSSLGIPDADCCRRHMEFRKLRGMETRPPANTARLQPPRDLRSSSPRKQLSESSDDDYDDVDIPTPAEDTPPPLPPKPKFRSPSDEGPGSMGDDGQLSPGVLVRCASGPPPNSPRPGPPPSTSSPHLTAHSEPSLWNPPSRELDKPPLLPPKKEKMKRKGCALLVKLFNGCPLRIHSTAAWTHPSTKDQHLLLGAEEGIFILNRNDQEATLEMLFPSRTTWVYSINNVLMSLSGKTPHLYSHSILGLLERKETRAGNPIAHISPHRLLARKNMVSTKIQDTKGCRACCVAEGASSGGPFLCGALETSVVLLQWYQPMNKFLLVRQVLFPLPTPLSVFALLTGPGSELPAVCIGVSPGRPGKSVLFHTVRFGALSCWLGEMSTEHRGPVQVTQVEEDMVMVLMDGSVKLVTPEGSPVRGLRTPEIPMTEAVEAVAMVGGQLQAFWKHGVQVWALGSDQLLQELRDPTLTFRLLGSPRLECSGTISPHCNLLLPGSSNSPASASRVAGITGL

Question: How did the pIC50 turn out when `CN(C)Cc1nc(Nc2ccc(-c3cnc4cc(F)ccn34)c3c2C(=O)NC3)ccc1C1CCC1` [I-788, 7-((5-cyclobutyl-6-((dimethylamino)-methyl)pyri-din-2-yl)amino)-4-(7-fluoroimidazo [1,2-a]pyridin-3-yl)isoindolin-1-one] was run?
Answer: Its pIC50 is > 7.00.

Question: With `O=C1NCc2c(-c3c[nH]c4ccccc34)ncc(Nc3ccc(N4CCOCC4)cn3)c21` [I-3, 4-(1H-indo1-3-yl)-7-[(5-morpholino-2-pyridyl)amino]-2,3-dihydropyrrolo [3,4-c] pyridin-1-one] as the molecule, how does the pIC50 read?
Answer: Its pIC50 is 6.00 to 7.00.

Question: How did the pIC50 turn out when `O=C1NCc2c(-c3cnc4cc(F)ccn34)ccc(Nc3ccc(N4CCC[C@@](O)(CN5CCOCC5)C4)cn3)c21` [I-656, (R)-4-(7-fluoroimidazo [1,2-a]pyridin-3-yl)-7-((5-(3-hydroxy-3-(morpholinomethyl)piperidin-1-yl)pyridin-2-yl)amino)isoin-dolin-1-one] was run?
Answer: The pIC50 was > 7.00.

Question: How did the pIC50 turn out when `Cc1ccn2c(-c3ccc(Nc4ccc(C(C)(C)C(=O)NCCN(C)C)cn4)c4c3CNC4=O)cnc2c1F` [I-456, N-[2-(dimethylami-no)ethyl]-2-[6-[[7-(8-fluoro-7-methyl-imidazo[1,2-a]pyridin-3-yl)-3-oxo-isoindolin-4-yl]amino]-3-pyridyl]-2-methyl-propanamide] was run?
Answer: The pIC50 was > 7.00.

Question: How did the pIC50 turn out when `CN(C)Cc1nc(Nc2ccc(-c3cnc4cc(F)ccn34)c3c2C(=O)NC3)ccc1C1(O)CCOCC1` [I-719, 7-((6-((dimethylamino)-methyl)-5-(4-hydroxytetra-hydro-2H-pyran-4-yl)pyridin-2-yl)amino)-4-(7-fluoroimidazo [1,2-a]pyridin-3-yl)isoindolin-1-one] was run?
Answer: The pIC50 was > 7.00.

Question: How did the pIC50 turn out when `CN(C)C(C)(C)C1CN(c2ccc(Nc3ccc(-c4cnc5cc(F)ccn45)c4c3C(=O)NC4)nc2)CCO1` (stereo in doubt) [I-590, (R)-7-((5-(2-(2-(dimethylami-no)propan-2-yl)morpho-lino)pyridin-2-yl)amino)-4-(7-fluoroimidazo [1,2-a]pyridin-3-yl)isoindolin-1-one] was run?
Answer: Its pIC50 is > 7.00.

Question: With `COc1cc(N2CCC(O)CC2)cnc1Nc1ccc(-c2ccnc3c2ccn3C)c2c1C(=O)NC2` [I-267, 7-((5-(4-hydroxy-piperidin-1-yl)-3-methoxypyridin-2-yl)amino)-4-(1-methyl-1H-pyrrolo[2,3-b]pyridin-4-yl)isoindolin-1-one] as the molecule, how does the pIC50 read?
Answer: Its pIC50 is < 6.00.

Question: “4-imidazo[1,2- a]pyridin-3-yl- 7-[(5-morpholino-2- pyridyl)-amino]-2,3- dihydropyrrolo [3,4-c]pyridin-1- one [I-198]” was tested. Which pIC50 did it give?
Answer: Its pIC50 is 6.00 to 7.00.

Question: How did the pIC50 turn out when `CNC1CCN(c2ccc(Nc3ccc(-c4ccnc5[nH]ccc45)c4c3C(=O)NC4)nc2)CC1` [I-57, 7-[[5-[4-(methylamino)-1-piperidyl]-2-pyridyl]amino]-4-(1H-pyrrolo[2,3-b]pyridin-4-yl)isoindolin-1-one] was run?
Answer: The pIC50 was > 7.00.

Question: `CN(C)C1COCCN(c2ccc(Nc3ccc(-c4cnc5cc(F)ccn45)c4c3C(=O)NC4)nc2)C1` (stereo not drawn) [I-509, 7-[[5-[6-(dimethylami-no)-l,4-oxazepan-4-yl]-2-pyridyl]amino]-4-(7-fluoroimidazo [1,2-a]pyridin-3-yl)isoindolin-1-one Formic acid salt] was tested. Which pIC50 did it give?
Answer: The pIC50 was > 7.00.

Question: With `CN(CCO)Cc1nc(Nc2ccc(-c3cnc4cc(F)ccn34)c3c2C(=O)NC3)ccc1C1CCOC1` (stereo in doubt) [I-734, (R)-4-(7-fluoroimidazo [1,2-a]pyridin-3-yl)-7-((6-(((2-hydroxyethy (methyl)amino)methyl)-5-(tetrahydrofuran-3-yl)pyridin-2-yl)amino)isoin-dolin-1-one] as the molecule, how does the pIC50 read?
Answer: The pIC50 was > 7.00.

Question: How did the pIC50 turn out when `Cn1ccc2c(-c3ncc(Nc4ccc(N5C[C@H]6C[C@@H]5CO6)cn4)c4c3CNC4=O)ccnc21` [I-289, 7-((5-((1R,4R)-2-oxa-5-azabicyclo[2.2.1]heptan-5-yl)pyridin-2-yl)amino)-4-(1-methyl-1H-pyrrolo[2,3-b]pyridin-4-yl)-2,3-dihydro-1H-pyrrolo[3,4-c]pyridin-1-one] was run?
Answer: Its pIC50 is > 7.00.
